Reference: patent US8927761B2, “Form of hexyl-5-aminolevulinate hydrochloride and methods of using the same” (Photocure ASA, priority 2012, dated 2015)

Experiment: Hot stage microscopy: conversion between solid forms on heating
Type: physicochemical
Settings: solid state; conversion to the new Form shown by observed change in crystal morphology
Experimental: Hot stage microscopy was performed using a Linkam hot stage (model FTIR 600) mounted on a Leica DM LP microscope. Sample was observed using a 20× objective. Sample was placed on a coverslip, and a second coverslip was then placed over the sample. Each sample was visually observed as the stage was heated. The hot stage was calibrated using USP melting point standards.
Characteristic data for new Form C was obtained with X-ray powder diffraction (XRPD), differential scanning calorimetry (DSC), hot stage microscopy, infrared spectroscopy (IR), Raman spectroscopy, and solid state ^13C cross polarization magic angle spinning nuclear magnetic resonance spectroscopy. The new Form is a crystalline material that melts near 99° C. […] The particle morphology is observed as rays, lathe, and/or blades. The new Form is the thermodynamically stable form above 65° C.

temperature range in which the new Form is the thermodynamically stable form: above 65 °C
SMILES: CCCCCCOC(=O)CCC(=O)CN.Cl [Form C, hexyl 5-aminolevulinate hydrochloride]
